Laboratory results taken from ChEMBL document CHEMBL1201862, “PubChem BioAssay data set” (2004).
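How tested: cells in 96-well plates exposed to compound for 48 hours at five concentrations. The concentration for 50% growth inhibition is given as GI50.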 Activity calls are given as the source filed them. No stated cut-off is given here; in the data, active = GI50 up to about 1.1 µM and inactive = higher.

Key:
Experiment in all cases: DTP human tumour cell line panel, 48 h
A549 = tested on: A549
COLO 205 = tested on: COLO 205
HCT-116 = tested on: HCT-116
KM12 = tested on: KM12
LOX IMVI = tested on: LOX IMVI
M14 = tested on: M14
MCF7 = tested on: MCF7
Malme-3M = tested on: Malme-3M
NCI-H522 = tested on: NCI-H522
OVCAR-8 = tested on: OVCAR-8
RPMI-8226 = tested on: RPMI-8226
RXF 393 = tested on: RXF 393
SK-MEL-28 = tested on: SK-MEL-28
SK-MEL-5 = tested on: SK-MEL-5
T47D = tested on: T47D
TK-10 = tested on: TK-10
U-251 = tested on: U-251
UO-31 = tested on: UO-31
K562 = tested on: K562

SMILES | GI50 (A549) | GI50 (COLO 205) | GI50 (HCT-116) | GI50 (KM12) | GI50 (LOX IMVI) | GI50 (M14) | GI50 (MCF7) | GI50 (Malme-3M) | GI50 (NCI-H522) | GI50 (OVCAR-8) | GI50 (RPMI-8226) | GI50 (RXF 393) | GI50 (SK-MEL-28) | GI50 (SK-MEL-5) | GI50 (T47D) | GI50 (TK-10) | GI50 (U-251) | GI50 (UO-31) | GI50 (K562)
CC1NC(C(=O)O)Cc2cc(O)c(O)cc21 (configuration not stated) | > 100 µM (inactive) | > 100 µM (inactive) | > 100 µM (inactive) | > 100 µM (inactive) | > 100 µM (inactive) | > 100 µM (inactive) | > 100 µM (inactive) | > 100 µM (inactive) | > 100 µM (inactive) | > 100 µM (inactive) | > 100 µM (inactive) | > 100 µM (inactive) | > 100 µM (inactive) | > 100 µM (inactive) | > 100 µM (inactive) | > 100 µM (inactive) | > 100 µM (inactive) | > 100 µM (inactive) | –
O=C(Nc1ccccc1)OCCN=C1c2ccccc2CCc2ccccc21 | 17.5 µM (inactive) | 17.6 µM (inactive) | 14.6 µM (inactive) | 14.3 µM (inactive) | 20 µM (inactive) | 21.8 µM (inactive) | 24 µM (inactive) | 22.5 µM (inactive) | – | 31.5 µM (inactive) | 12.8 µM (inactive) | 19.4 µM (inactive) | 15.4 µM (inactive) | 13.4 µM (inactive) | 15.3 µM (inactive) | 31.8 µM (inactive) | 17.3 µM (inactive) | 17.3 µM (inactive) | 15.1 µM (inactive)
CC(=O)Nc1ccc(C(=O)NN2C(=O)CSC2c2ccc([N+](=O)[O-])cc2)cc1 (configuration not stated) | > 100 µM (inactive) | > 100 µM (inactive) | > 100 µM (inactive) | > 100 µM (inactive) | – | > 100 µM (inactive) | > 100 µM (inactive) | – | – | > 100 µM (inactive) | > 100 µM (inactive) | > 100 µM (inactive) | > 100 µM (inactive) | > 100 µM (inactive) | > 100 µM (inactive) | > 100 µM (inactive) | > 100 µM (inactive) | > 100 µM (inactive) | > 100 µM (inactive)
CC[C@@H](O)C[C@H]1CCC[C@@]2(C[C@@H]3OC(=O)/C=C/[C@@](C)(O)[C@@H](O)[C@H](C)[C@@H](O)[C@H](OC4CCC(N(C)C)C(C)O4)[C@@H](O)[C@](C)(O)CCCCC/C=C/[C@@H]4CC(C)(C)O[C@@]4(O)C[C@H](O2)[C@H]3C)O1 (some centres not stated) | < 0.01 µM (active) | < 0.01 µM (active) | 1.54 µM (inactive) | 0.34 µM (active) | 1.82 µM (inactive) | 1.85 µM (inactive) | < 0.01 µM (active) | 1.56 µM (inactive) | < 0.01 µM (active) | < 0.01 µM (active) | < 0.01 µM (active) | 14.7 µM (inactive) | 15.8 µM (inactive) | < 0.01 µM (active) | < 0.01 µM (active) | – | < 0.01 µM (active) | < 0.0388 µM (active) | < 0.01 µM (active)
c1ccc(CCCN2C3CCC2CN(CCOC(c2ccccc2)c2ccccc2)C3)cc1 | 13.3 µM (inactive) | 1.68 µM (inactive) | 7.05 µM (inactive) | 5.66 µM (inactive) | 12.1 µM (inactive) | 4.99 µM (inactive) | 12.6 µM (inactive) | 12.5 µM (inactive) | 10.9 µM (inactive) | 11.4 µM (inactive) | 3.11 µM (inactive) | – | 13.3 µM (inactive) | 3.3 µM (inactive) | 3.24 µM (inactive) | 12.5 µM (inactive) | 8.04 µM (inactive) | 12.2 µM (inactive) | 3.91 µM (inactive)
Cn1nc(Cc2ccc(Cl)cc2)n(N)c1=O | > 100 µM (inactive) | – | > 100 µM (inactive) | > 100 µM (inactive) | – | – | > 100 µM (inactive) | > 100 µM (inactive) | – | > 100 µM (inactive) | > 100 µM (inactive) | > 100 µM (inactive) | > 100 µM (inactive) | > 100 µM (inactive) | > 100 µM (inactive) | > 100 µM (inactive) | > 100 µM (inactive) | > 100 µM (inactive) | > 100 µM (inactive)
CC1CC(Nc2ccc(Br)cc2)N(C(=O)c2ccc(Br)cc2)O1 (configuration not stated) | 3.97 µM (inactive) | 3.49 µM (inactive) | 4.42 µM (inactive) | – | – | > 10 µM (inactive) | 5.81 µM (inactive) | 6.84 µM (inactive) | 8.07 µM (inactive) | 7.4 µM (inactive) | 4.78 µM (inactive) | > 10 µM (inactive) | > 10 µM (inactive) | > 10 µM (inactive) | 9.77 µM (inactive) | > 10 µM (inactive) | – | 2.34 µM (inactive) | 0.435 µM (active)
COc1ccc(C2SC(=N)Nc3c2c(C)nn3C(=O)c2ccncc2)cc1 (configuration not stated) | > 100 µM (inactive) | 57.7 µM (inactive) | > 100 µM (inactive) | > 100 µM (inactive) | > 100 µM (inactive) | > 100 µM (inactive) | 75.2 µM (inactive) | > 100 µM (inactive) | – | > 100 µM (inactive) | 57.3 µM (inactive) | > 100 µM (inactive) | > 100 µM (inactive) | 45.7 µM (inactive) | 45.5 µM (inactive) | > 100 µM (inactive) | > 100 µM (inactive) | > 100 µM (inactive) | 64.7 µM (inactive)
Oc1ccc(O)c(CNc2ccc(C(O)C(F)(F)F)cc2)c1 (configuration not stated) | 31.6 µM (inactive) | 18.5 µM (inactive) | 16.7 µM (inactive) | – | 14.2 µM (inactive) | 14.8 µM (inactive) | 21.8 µM (inactive) | 15.6 µM (inactive) | 1.66 µM (inactive) | 10.4 µM (inactive) | – | 12.5 µM (inactive) | 31.6 µM (inactive) | 29.3 µM (inactive) | 18.1 µM (inactive) | 17.8 µM (inactive) | 35.8 µM (inactive) | 10.3 µM (inactive) | 11.9 µM (inactive)
CN(CCC(=O)N1CC(CCl)c2ccc([N+](=O)[O-])cc21)CCC(=O)N1CC(CCl)c2ccc([N+](=O)[O-])cc21 (configuration not stated) | 36.6 µM (inactive) | 15.4 µM (inactive) | 12.6 µM (inactive) | 4.72 µM (inactive) | 7.87 µM (inactive) | 10.1 µM (inactive) | 11.4 µM (inactive) | 10.1 µM (inactive) | 6.53 µM (inactive) | 14.3 µM (inactive) | 3.96 µM (inactive) | – | 15.5 µM (inactive) | 12.3 µM (inactive) | 25.1 µM (inactive) | 10.4 µM (inactive) | 24.2 µM (inactive) | – | 14.3 µM (inactive)
CCOC(=O)N1C=CC(=C2C(=C3C=CN(C(=O)OCC)C=C3)C(=C3C=CN(C(=O)OCC)C=C3)C2=C2C=CN(C(=O)OCC)C=C2)C=C1 | 24.4 µM (inactive) | 23.1 µM (inactive) | 11.1 µM (inactive) | 22.1 µM (inactive) | 12.2 µM (inactive) | 28.3 µM (inactive) | 35.6 µM (inactive) | 13.5 µM (inactive) | 19.1 µM (inactive) | 27.1 µM (inactive) | – | 51.5 µM (inactive) | 27.5 µM (inactive) | 26.5 µM (inactive) | 36.5 µM (inactive) | 26 µM (inactive) | 13.7 µM (inactive) | 12.9 µM (inactive) | 23.8 µM (inactive)
COc1cc2c(cc1OC)C1c3ccccc3CCN1CC2 (configuration not stated) | > 100 µM (inactive) | 58.7 µM (inactive) | 36.8 µM (inactive) | > 100 µM (inactive) | 48.6 µM (inactive) | 45 µM (inactive) | > 100 µM (inactive) | > 100 µM (inactive) | > 100 µM (inactive) | > 100 µM (inactive) | – | > 100 µM (inactive) | 79.3 µM (inactive) | 81.1 µM (inactive) | 75.9 µM (inactive) | > 100 µM (inactive) | 95.3 µM (inactive) | – | 57.7 µM (inactive)
O=C1OC(c2ccco2)=N/C1=C\c1cccc([N+](=O)[O-])c1 | > 100 µM (inactive) | > 100 µM (inactive) | > 100 µM (inactive) | > 100 µM (inactive) | > 100 µM (inactive) | > 100 µM (inactive) | > 100 µM (inactive) | > 100 µM (inactive) | > 100 µM (inactive) | > 100 µM (inactive) | > 100 µM (inactive) | – | > 100 µM (inactive) | > 100 µM (inactive) | > 100 µM (inactive) | > 100 µM (inactive) | > 100 µM (inactive) | – | > 100 µM (inactive)
COc1cc2c3c(c1O)C1(C=CC(=O)C=C1)CC3N(C)CC2 (configuration not stated) [GLAZIOVINE] | 22.4 µM (inactive) | 5.4 µM (inactive) | 3.81 µM (inactive) | 4.48 µM (inactive) | 2.77 µM (inactive) | 12.1 µM (inactive) | 5.14 µM (inactive) | 11.3 µM (inactive) | 1.93 µM (inactive) | 10.4 µM (inactive) | 14.8 µM (inactive) | 6.14 µM (inactive) | 13.2 µM (inactive) | 14 µM (inactive) | 11.7 µM (inactive) | 21.6 µM (inactive) | 4.26 µM (inactive) | – | 5.2 µM (inactive)
O=c1c2cc(-c3ccccc3)cnc2sn1-c1ccc([N+](=O)[O-])cc1 | 31.8 µM (inactive) | > 100 µM (inactive) | 21.3 µM (inactive) | 38.9 µM (inactive) | – | 50.6 µM (inactive) | 49 µM (inactive) | 40.6 µM (inactive) | 22.1 µM (inactive) | 33.2 µM (inactive) | 23.4 µM (inactive) | 29.9 µM (inactive) | 58.1 µM (inactive) | – | 44.1 µM (inactive) | – | 21.6 µM (inactive) | 40 µM (inactive) | 35.8 µM (inactive)
